Test results as given in US20200093835A1, “METHODS OF TREATING VESTIBULAR SCHWANNOMA” (Massachusetts Eye and Ear Infirmary, priority 2017, published 2020).

What was measured:
[1] = tested on: HEI-193 human schwannoma cells; experiment: Metabolic activity (MTT) assay, HEI-193; assay type: cell-based; settings: for HEI-193 cell metabolic activity: 72 h; for metabolic activity of HEI-193 cells: preliminary testing, clinically reasonable concentrations
Protocol: (§1) HEI-193 cells are derived from a patient with sporadic bilateral vestibular schwannomas and a history of meningioma; these cells express a splice variant of the merlin protein (encoded by the NF2 gene), but neither typical isoform^52. HEI-193 cells were cultured in DMEM/F12-containing medium with 10% fetal bovine serum and 1% penicillin and streptomycin mix as described above. Immortalized NF2-null and NF2-expressing arachnoid AC-CRISPR cell lines derived from primary human autopsy specimens were obtained via generous gift from Dr. Vijaya Ramesh at Massachusetts General Hospital^40. NF2-null and NF2-expressing arachnoid cells were cultured in DMEM with 15% fetal bovine serum and 1% penicillin and streptomycin mix. All cell lines were maintained in an incubator at 37 degrees Celsius with 5% carbon dioxide and treated with drugs 24-36 hours after seeding at between 15,000-25,000 cells per well in 24-well plates. Phase contrast photos of healthy and drug-treated cultures were taken at 10× magnification on an IncuCyte S3 instrument (Essen Bio).
Cultures were incubated with drug-containing medium or 0.1% DMSO vehicle for 72 hours and then processed for downstream applications.
The metabolic activity of primary VS and HEI-193 cells was assessed using the colorimetric 3-(4,5-dimethylthiazol-2-yl)-2,5-diphenyltetrazolium bromide (MTT) assay (Life Technologies). After 72-hour incubation of cells in a 24-well plate with medium containing drug or vehicle, culture medium was replaced with 362 μL of colorless DMEM and 38 μL of 12 mM MTT in 3-6 random wells. Cells were incubated for an additional 4 hours. The resulting formazan crystals were dissolved in 380 μL of a solution of 100 mg/mL sodium dodecyl sulfate in 0.01 M HCl and incubated for another 4 hours. Optical density (OD) at 570 nm of each well was detected using a spectrophotometer. The average OD value of cells exposed to vehicle (0.1% DMSO) was set to 100% and used to normalize OD values of cells treated with drugs; metabolic activity was then reported as percent change. Statistical testing was performed on raw OD values (see Statistical Methods).

[2] = tested on: primary human VS cells; experiment: Cytotoxicity assay (IncuCyte Cytotox Reagent), primary VS cells; assay type: cell-based; settings: 35 μM, 72 hours, live cell fluorescence microscopy
Protocol: Cytotoxicity and cell confluence were measured using live-cell, time-lapse phase contrast and fluorescence imaging acquired at 10× by an IncuCyte S3 instrument (Essen Bioscience). Cytotoxicity was measured by incorporation of IncuCyte Cytotox Reagent (Essen Bioscience), applied according to manufacturer's instructions; the reagent fluoresces when it binds DNA after compromise of membrane integrity. Nine images were acquired per well every 2 hours for 72 hours, and cytotoxicity at each time point is reported as number of fluorescent objects per well, after thresholding to avoid the inclusion of small cellular debris. Phase object confluence was measured using time-lapse phase contrast imaging acquired at 10× by the same instrument, analyzing 9 images per well every 2 hours for 72 hours, and is reported as percent confluence per square millimeter.

[3] = tested on: HEI-193 cells; experiment: Flow cytometry, annexin V/propidium iodide staining; assay type: cell-based, human; settings: 35 μM, 72 h, versus vehicle
Protocol: Apoptotic cell death was assessed using an Annexin V/propidium iodide (PI) staining kit (Miltenyi Biotec). […] Adherent cells were collected by trypsinization, and non-adherent (floating) cells were collected from culture medium. Cells were centrifuged, washed in PBS, and incubated in 1× annexin binding buffer, annexin V-fluorescein isothiocyanate (FITC), and propidium iodide (PI) according to the manufacturer's recommendations. Stained cells were immediately analyzed using a Cytomics FC500 flow cytometer. Data were analyzed using CXP Analysis software (version 2.2, Coulter).

[4] = in vivo; cited from earlier work
[5] = tested on: HEI-193 cells; experiment: Phalloidin staining of f-actin, HEI-193; assay type: cell-based, human; settings: 35 μM, 72 hours
[6] = tested on: primary human VS cells; experiment: Proliferation assay (BrdU incorporation), primary VS cells
[7] = tested on: unresectable meningioma; settings: cited from earlier work
[8] = tested on: HEI-193 cells; experiment: TUNEL assay, HEI-193; assay type: cell-based, human; settings: 72 h, versus vehicle
[9] = tested on: AC-CRISPR NF2(−/−) and AC-CRISPR NF2(+/+) human arachnoid cells; experiment: Metabolic viability, arachnoid cells versus schwannoma cells; assay type: cell-based
Protocol: as §1
(§2) The metabolic activity of primary VS and HEI-193 cells was assessed using the colorimetric 3-(4,5-dimethylthiazol-2-yl)-2,5-diphenyltetrazolium bromide (MTT) assay (Life Technologies). […] Optical density (OD) at 570 nm of each well was detected using a spectrophotometer. […]

[10] = tested on: primary human VS cells; experiment: Metabolic activity (MTT) assay, primary VS cells; assay type: cell-based
Protocol: Written informed consent was obtained from all subjects prior to inclusion in this study and all procedures were conducted in accordance with the Helsinki Declaration of 1975. Detailed methods for human surgical specimen collection, processing, and culture are previously published^38. VS specimens were harvested from patients undergoing surgical tumor resection, and GAN specimens from healthy patients undergoing benign parotidectomy or neck dissection surgery, during which the GAN is routinely sacrificed. Patients who had received radiation therapy prior to surgery were excluded.
Briefly, after surgical resection, VS or GAN tissue was immediately placed in saline solution and transported to the laboratory on ice. Specimens were rinsed with Hank's Balanced Salt Solution (HBSS, ThermoFisher Scientific), dissected to remove burned tissue and blood vessels, and separated for RNA preservation (RNALater, ThermoFisher Scientific) or primary cell culture. […]
as §2

[11] = tested on: HEI-193 cells; experiment: Cell confluence and phase contrast imaging (IncuCyte), HEI-193; assay type: cell-based, human
Protocol: as §1, with “All cell lines were maintained in an incubator at 37 degrees Celsius with 5% carbon dioxide and treated with drugs 24-36 hours after seeding at between 15,000-25,000 cells per well in 24-well plates. Phase contrast photos of healthy and drug-treated cultures were taken at 10× magnification on an IncuCyte S3 instrument (Essen Bio).” left out
Cytotoxicity and cell confluence were measured using live-cell, time-lapse phase contrast and fluorescence imaging acquired at 10× by an IncuCyte S3 instrument (Essen Bioscience). Cytotoxicity was measured by incorporation of IncuCyte Cytotox Reagent (Essen Bioscience), applied according to manufacturer's instructions; the reagent fluoresces when it binds DNA after compromise of membrane integrity. […] Phase object confluence was measured using time-lapse phase contrast imaging acquired at 10× by the same instrument, analyzing 9 images per well every 2 hours for 72 hours, and is reported as percent confluence per square millimeter.

[12] = tested on: HEI-193 cells; experiment: Proliferation assay (BrdU incorporation), HEI-193; assay type: cell-based, human; settings: 35 μM, 72 h; p=0.0007
Protocol: 5′bromo-2′-deoxyuridine (BrdU) was added to label proliferating cells in culture 2 hours before fixation in 4% formalin (paraformaldehyde). Cell membranes were permeabilized with 10 minutes of incubation in 1% Triton X-100 and nuclear membranes with 20 minutes in 2N hydrochloric acid (HCl). Cells were blocked in 5% normal horse serum (NHS) and 1% Triton X-100 and incubated with a primary antibody against BrdU (# OBT0030G, AbD Serotec) overnight, followed by incubation with fluorescent anti-rat immunoglobulin G (AlexaFluor, Life Technologies).

[13] = tested on: HEI-193 cells; experiment: ELISA for progesterone in conditioned cell culture medium; assay type: cell-based, human; settings: 35 μM versus 0.1% DMSO vehicle; p=0.08
Protocol: Cell-conditioned medium was collected from mifepristone-treated and untreated HEI-193 cells after 72-hour incubation with the drug. Enzyme-linked immunosorbent assay (ELISA) was performed on each sample in triplicate to assess the quantity of progesterone in cell-conditioned medium, according to the manufacturer's protocol (Enzo Life Science, # ADI-900-011). Data were analyzed using GraphPad Prism 7 software licensed through Harvard Medical School.

[14] = tested on: primary human Schwann cells; experiment: Metabolic activity (MTT) assay, primary Schwann cells; assay type: cell-based; settings: p=0.23
[15] = tested on: HEI-193 cells; experiment: Cell cycle analysis; assay type: cell-based, human; settings: 72 h treatment
Protocol: Harvested HEI-193 cells were washed in PBS and fixed in cold 70% ethanol at −20° C. for 18-72 h. Before staining with propidium iodide (PI), cells were centrifuged and washed again in cold PBS. 2×10^6 or fewer cells were incubated with 500 μl staining solution [0.1% Triton X-100 (Sigma), 2 mg/ml RNase A (Qiagen), and 1 μg/ml PI (Miltenyi Biotec) in PBS] for 15 minutes at 37° C. In order to exclude DNAse activity, RNase A was boiled for 5 minutes and cooled down before its addition to staining solution. Cells were analyzed on a Cytomics FC500 flow cytometer using CXP Analysis software (version 2.2, Coulter).

[16] = tested on: HEI-193 cells; experiment: Caspase 3/7 activation by live-cell imaging, HEI-193; assay type: cell-based, human; settings: 70 μM and 35 μM, over 100 h, versus vehicle
[17] = tested on: primary VS cells; experiment: Cell death (TUNEL) assay, primary VS cells; assay type: cell-based, human; settings: 25 μM, 72 h

## O=C(O)[C@@H](S)[C@@H](S)C(=O)O [succimer]
[1]; 25, 50, and 100 μM
  HEI-193 cell metabolic activity: no significant effect
[1]
  metabolic activity of HEI-193 cells: no effect

## CC#C[C@]1(O)CC[C@H]2[C@@H]3CCC4=CC(=O)CCC4=C3[C@@H](c3ccc(N(C)C)cc3)C[C@@]21C [mifepristone, 11β-(4-dimethylaminophenyl)-17β-hydroxy-17α-(1-propynyl)-estra-4,9-dien-3-one]
[2]
  cytotoxicity of VS cells: significant increase
[3]
  early apoptotic cells (annexin V/propidium iodide): slight but not significant increase
[4]
  blood-brain barrier crossing: able to cross the blood-brain barrier
[5]
  f-actin morphology (phalloidin staining): crumpled f-actin morphology
[6]; 35 μM, p=0.0002
  BrdU incorporation in primary VS cells: significant decline
[7]; double-blind, randomized Phase III trial of 164 patients
  outcome versus placebo: no difference between treatment and placebo
[7]; long-term clinical trial, unresectable meningioma
  patients with minor responses resulting in clinical benefit: eight of 28
[8]
  number of TUNEL positive cells: no statistically significant difference
[9]
  metabolic viability, schwannoma cells compared with arachnoid cells: reduces the metabolic viability of schwannoma cells more significantly
[10]; MTT, ten tumors, vehicle vs 35 μM p=0.002
  metabolic activity of primary VS cells: declines with increasing concentrations
[11]; 35 μM, 72 hours
  phase object confluence: remains constant
[11]; phase contrast, FIG. 2C
  cell shape under treatment: long, thin, spindle-like shape
[12]
  percentage of BrdU+ HEI-193 cells: significantly declines
[13]
  progesterone in culture medium: increase in progesterone in culture medium
[1]; MTT, 72 h in culture, vehicle vs 35 μM p=0.006
  metabolic viability of HEI-193 cells: decreases with increasing concentration
[14]
  metabolic viability of primary human Schwann cells: does not adversely affect
[15]
  phase of cell cycle: no significant differences
[16]
  caspase 3/7 activity: slight but not significant elevation

## Nc1ncnc2c1ncn2[C@@H]1O[C@H](COP(=O)(O)O)[C@@H](O)[C@H]1O [ADENOSINE MONOPHOSPHATE, ADENOSINE, adenosine monophosphate]
[1]; 5, 10, and 15 μM
  HEI-193 cell metabolic activity: no significant effect
[1]
  metabolic activity of HEI-193 cells: no effect

## gold sodium thiomalate
[1]; 25, 50, 100, and 300 μM
  HEI-193 cell metabolic activity: significant effect on HEI-193 cell metabolic activity, but only at clinically unreasonable concentrations
[1]
  metabolic activity of HEI-193 cells: no effect

## C[C@H]1C[C@@H]2[C@H]([C@@H](O)C[C@@]3(C)[C@H]2CC[C@]3(O)C(=O)CO)[C@@]2(C)C=CC(=O)C=C12 [methylprednisolone]
[1]; 27 μM
  HEI-193 cell metabolic activity: no significant effect
[1]
  metabolic activity of HEI-193 cells: no effect

## C[C@]12C=CC(=O)C=C1CC[C@@H]1[C@@H]2[C@@H](O)C[C@@]2(C)[C@H]1CC[C@]2(O)C(=O)CO [prednisolone]
[17]
  elevation in cell death among primary VS cells versus vehicle: 15.85%
[6]; 25 μM, 72 h
  proliferation of primary VS cells: no effect
[10]; 25 μM, 72 h
  metabolic activity of primary VS cells: modest effect
[1]; 25 μM
  HEI-193 cell metabolic activity: no significant effect
